# The source made the active and inactive calls. The calls are words filed in the database; no cut-off is given here.
# Key:
# Hordeum vulgare [1] = experiment: Inhibition of fatty acid synthesis in Hordeum vulgare (barley) using [14C]acetate assessed as reduction in [14C]-labeled 24C fatty acid level at 300 uM after 3 hr by liquid scintillation counting; assay type: functional, organism-based
# Hordeum vulgare [2] = experiment: Inhibition of fatty acid synthesis in Hordeum vulgare (barley) using [14C]acetate assessed as reduction in [14C]-labeled 22C fatty acid level at 300 uM after 3 hr by liquid scintillation counting; assay type: functional, organism-based
# Cucumis sativus [3] = experiment: Inhibition of fatty acid synthesis in Cucumis sativus (cucumber) using [14C]acetate assessed as reduction in [14C]-labeled 20C fatty acid level at 300 uM after 3 hr by liquid scintillation counting relative to control; assay type: functional, organism-based
# Hordeum vulgare [4] = experiment: Inhibition of fatty acid synthesis in Hordeum vulgare (barley) using [14C]acetate assessed as reduction in [14C]-labeled 20C fatty acid level at 300 uM after 3 hr by liquid scintillation counting; assay type: functional, organism-based
# Cucumis sativus [5] = experiment: Inhibition of fatty acid synthesis in Cucumis sativus (cucumber) using [14C]acetate assessed as [14C]-labeled 18C fatty acid level at 300 uM after 3 hr by liquid scintillation counting (reference value: 33.5 +/- 1.5%); assay type: functional; design: scale not given: the % may be the effect or the level left
# Hordeum vulgare [6] = experiment: Inhibition of fatty acid synthesis in Hordeum vulgare (barley) using [14C]acetate assessed as [14C]-labeled 18C fatty acid level at 300 uM after 3 hr by liquid scintillation counting (reference value: 57 +/- 0.9%); assay type: functional; design: scale not given: the % may be the effect or the level left
# Cucumis sativus [7] = experiment: Inhibition of fatty acid synthesis in Cucumis sativus (cucumber) using [14C]acetate assessed as [14C]-labeled 16C fatty acid level at 300 uM after 3 hr by liquid scintillation counting (reference value: 27.6 +/- 5.1%); assay type: functional; design: scale not given: the % may be the effect or the level left
# Hordeum vulgare [8] = experiment: Inhibition of fatty acid synthesis in Hordeum vulgare (barley) using [14C]acetate assessed as [14C]-labeled 16C fatty acid level at 300 uM after 3 hr by liquid scintillation counting (reference value: 30.6 +/- 0.2%); assay type: functional; design: scale not given: the % may be the effect or the level left
# Cucumis sativus [9] = experiment: (§1) Inhibition of fatty acid synthesis in Cucumis sativus (cucumber) assessed as inhibition of [14C]acetate incoporation in total fatty acids at 300 uM measured as total disintegration per g of fresh weight after 3 hr by liquid scintillation counting (reference value: 4.4 +/- 1 dpm x 10^6 g'1 fresh wt); assay type: functional
# Hordeum vulgare [10] = experiment: Inhibition of fatty acid synthesis in Hordeum vulgare (barley) assessed as inhibition of [14C]acetate incoporation in total fatty acids at 300 uM measured as total disintegration per g of fresh weight after 3 hr by liquid scintillation counting (reference value: 5.8 +/- 1.6 dpm x 10^6 g'1 fresh wt); assay type: functional
# Hordeum vulgare [11] = experiment: Inhibition of fatty acid synthesis in Hordeum vulgare (barley) using [14C]malonate assessed as [14C]-labeled 18C fatty acid level at 300 uM after 3 hr by liquid scintillation counting (reference value: 12.5 +/- 3.9 %); assay type: functional; design: scale not given: the % may be the effect or the level left
# Cucumis sativus [12] = experiment: Inhibition of fatty acid synthesis in Cucumis sativus (cucumber) using [14C]malonate assessed as [14C]-labeled 16C fatty acid level at 300 uM after 3 hr by liquid scintillation counting (reference value: 5.1 +/- 0.9%); assay type: functional; design: scale not given: the % may be the effect or the level left
# Hordeum vulgare [13] = experiment: Inhibition of fatty acid synthesis in Hordeum vulgare (barley) using [14C]malonate assessed as [14C]-labeled 16C fatty acid level at 300 uM after 3 hr by liquid scintillation counting (reference value: 8.1 %); assay type: functional; design: scale not given: the % may be the effect or the level left
# Cucumis sativus [14] = experiment: Inhibition of fatty acid synthesis in Cucumis sativus (cucumber) using [14C]malonate assessed as [14C]-labeled 24C fatty acid level at 300 uM after 3 hr by liquid scintillation counting (reference value: 26.4 +/- 5.5%); assay type: functional; design: scale not given: the % may be the effect or the level left
# Hordeum vulgare [15] = experiment: Inhibition of fatty acid synthesis in Hordeum vulgare (barley) using [14C]malonate assessed as [14C]-labeled 24C fatty acid level at 300 uM after 3 hr by liquid scintillation counting (reference value: 16.2 +/- 1.1 %); assay type: functional; design: scale not given: the % may be the effect or the level left
# Cucumis sativus [16] = experiment: Inhibition of fatty acid synthesis in Cucumis sativus (cucumber) using [14C]malonate assessed as [14C]-labeled 22C fatty acid level at 300 uM after 3 hr by liquid scintillation counting (reference value: 42.5 +/- 0.6%); assay type: functional; design: scale not given: the % may be the effect or the level left
# Hordeum vulgare [17] = experiment: Inhibition of fatty acid synthesis in Hordeum vulgare (barley) using [14C]malonate assessed as [14C]-labeled 22C fatty acid level at 300 uM after 3 hr by liquid scintillation counting (reference value: 32.8 +/- 2.3%); assay type: functional; design: scale not given: the % may be the effect or the level left
# Cucumis sativus [18] = experiment: Inhibition of fatty acid synthesis in Cucumis sativus (cucumber) using [14C]malonate assessed as [14C]-labeled 20C fatty acid level at 300 uM after 3 hr by liquid scintillation counting (reference value: 11.7 +/- 2%); assay type: functional; design: scale not given: the % may be the effect or the level left
# Hordeum vulgare [19] = experiment: Inhibition of fatty acid synthesis in Hordeum vulgare (barley) using [14C]malonate assessed as [14C]-labeled 20C fatty acid level at 300 uM after 3 hr by liquid scintillation counting (reference value: 6.5 +/- 3.1 %); assay type: functional; design: scale not given: the % may be the effect or the level left
# Cucumis sativus [20] = experiment: Inhibition of fatty acid synthesis in Cucumis sativus (cucumber) using [14C]malonate assessed as [14C]-labeled 18C fatty acid level at 300 uM after 3 hr by liquid scintillation counting (reference value: 14.3 +/- 2%); assay type: functional; design: scale not given: the % may be the effect or the level left
# Cucumis sativus [21] = experiment: as §1, with “of [14C]malonate” for “of [14C]acetate”, “value: 16.3” for “value: 4.4”, “+/- 1.1” for “+/- 1”; assay type: functional
# Hordeum vulgare [22] = experiment: Inhibition of fatty acid synthesis in Hordeum vulgare (barley) assessed as inhibition of [14C]malonate incoporation in total fatty acids at 300 uM measured as total disintegration per g of fresh weight after 3 hr by liquid scintillation counting (reference value: 9.4 +/- 2.5 dpm x 10^6 g'1 fresh wt); assay type: functional
compound,measurement,setting,value
COCCN(C(=O)CCl)c1c(C)cccc1C [DIMETHACHLOR],inhibition,Hordeum vulgare [1],Active
same,inhibition,Hordeum vulgare [2],Active
same,inhibition,Cucumis sativus [3],Active
same,inhibition,Hordeum vulgare [4],Active
same,Activity,Cucumis sativus [5],63.9%
same,Activity,Hordeum vulgare [6],63.9%
same,Activity,Cucumis sativus [7],36.2%
same,Activity,Hordeum vulgare [8],36.1%
same,Activity,Cucumis sativus [9],2.9 ×10⁶ dpm
same,Activity,Hordeum vulgare [10],5.9 ×10⁶ dpm
same,Activity,Hordeum vulgare [11],7.3%
same,Activity,Cucumis sativus [12],20.4%
same,Activity,Hordeum vulgare [13],14%
same,Activity,Cucumis sativus [14],9.3%
same,Activity,Hordeum vulgare [15],5.8%
same,Activity,Cucumis sativus [16],12.5%
same,Activity,Hordeum vulgare [17],18.1%
same,Activity,Cucumis sativus [18],11.2%
same,Activity,Hordeum vulgare [19],8.5%
same,Activity,Cucumis sativus [20],46.8%
same,Activity,Cucumis sativus [21],9.4 ×10⁶ dpm
same,Activity,Hordeum vulgare [22],6.8 ×10⁶ dpm
